# In ChEMBL document CHEMBL1135275, “Structural approach of the mechanism of inhibition of alpha-chymotrypsin by coumarins” (Bioorg Med Chem Lett, 2002):
# Target: Chymotrypsinogen B (Bos taurus) (UniProt P00767)
# Experiment: The compound was tested for inhibitory potency against Chymotrypsinogen
# Chain of Chymotrypsinogen B (Bos taurus) (P00767 16-146 limits assumed, other chains not shown): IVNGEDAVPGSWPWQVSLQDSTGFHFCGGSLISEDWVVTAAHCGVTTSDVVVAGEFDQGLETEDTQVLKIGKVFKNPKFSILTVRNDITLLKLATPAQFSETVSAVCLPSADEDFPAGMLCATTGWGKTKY
# Chain of Chymotrypsinogen B (Bos taurus) (P00767 149-245 limits assumed, other chains not shown): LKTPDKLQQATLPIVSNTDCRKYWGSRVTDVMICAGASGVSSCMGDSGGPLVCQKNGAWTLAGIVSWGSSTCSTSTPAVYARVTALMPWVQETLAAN
row,K inact/Km,SMILES
1,48000 M⁻¹ s⁻¹,O=C(Sc1ccccc1)c1cc2cc(CCl)ccc2oc1=O
2,2400 M⁻¹ s⁻¹,O=C(c1ccccc1)c1cc2cc(CCl)ccc2oc1=O

# More lines, now with the values behind:
row,SMILES,K inact/Km
1,O=C(Nc1ccccc1)c1cc2cc(CCl)ccc2oc1=O,200 M⁻¹ s⁻¹
2,O=C(Oc1ccccc1)c1cc2cc(CCl)ccc2oc1=O,100000 M⁻¹ s⁻¹
3,O=C(Cc1ccccc1)c1cc2cc(CCl)ccc2oc1=O,10000 M⁻¹ s⁻¹
